Laboratory results taken from ChEMBL document CHEMBL5154804, “Species-Selective Targeting of Fungal Hsp90: Design, Synthesis, and Evaluation of Novel 4,5-Diarylisoxazole Derivatives for the Combination Treatment of Azole-Resistant Candidiasis” (J Med Chem, 2022).
Activity calls are given as the source filed them. The rule behind the calls is not given here.

Experiments:
Candida albicans [1] = test: Synergistic antifungal activity against fluconazole-resistant Candida albicans 904 assessed as inhibition of fungal growth in presence of fluconazole by checker board microdilution assay; assay type: functional
Candida albicans [2] = test: Synergistic antifungal activity against fluconazole-resistant Candida albicans 103 assessed as inhibition of fungal growth in presence of fluconazole by checker board microdilution assay; assay type: functional
Candida albicans [3] = test: Antifungal activity against fluconazole-resistant Candida albicans 632 assessed as inhibition of fungal growth by checker board microdilution assay; assay type: functional
Candida albicans [4] = test: Synergetic antifungal activity against fluconazole-resistant Candida albicans 103 assessed as fractional inhibitory concentration index in presence of fluconazole by checker board microdilution assay; assay type: functional
Candida albicans [5] = test: Synergetic antifungal activity against fluconazole-resistant Candida albicans 311 assessed as fractional inhibitory concentration index in presence of fluconazole by checker board microdilution assay; assay type: functional
A549 = test: Cytotoxicity against human A549 cell assessed as inhibition of cell growth after 24 hrs by MTT assay; assay type: functional, cell-based; conditions: A549, 24 h
MCF7 = test: Cytotoxicity against human MCF7 cell assessed as inhibition of cell growth after 24 hrs by MTT assay; assay type: functional, cell-based; conditions: MCF7, 24 h
[6] = Cytotoxicity against human THLE-2 cell assessed as inhibition of cell growth after 24 hrs by MTT assay; assay type: toxicity, cell-based; conditions: THLE-2 cells
[7] = Cytotoxicity against human BEAS-2B cell assessed as inhibition of cell growth after 24 hrs by MTT assay; assay type: toxicity, cell-based; conditions: BEAS-2B cells
RAW264.7 = test: Cytotoxicity against mouse RAW264.7 cell assessed as inhibition of cell growth after 24 hrs by MTT assay; assay type: functional, cell-based; conditions: RAW264.7, 24 h
Candida albicans [8] = test: Synergistic antibiofilm activity in Candida albicans 904 assessed as downregulation of EFG1 at 32 ug/ml incubated for 24 hrs in presence of fluconazole by RT-PCR analysis; assay type: functional, organism-based; conditions: dose 32.0 µg/ml
Candida albicans [9] = test: Synergistic antibiofilm activity in Candida albicans 904 assessed as downregulation of TEC1 at 32 ug/ml incubated for 24 hrs in presence of fluconazole by RT-PCR analysis; assay type: functional, organism-based; conditions: dose 32.0 µg/ml
Candida albicans [10] = test: Fungicidal activity against Candida albicans 904 assessed as colony forming at 4 times MIC incubated for 48 hrs by time-kill curve assay; assay type: functional
Candida albicans [11] = test: Reversal of fluconazole mediated azole resistance Candida albicans 904 assessed as downregulation of CDR2 at 32 ug/ml in presence of fluconazole by RT-PCR; assay type: functional, organism-based; conditions: dose 32.0 µg/ml
[12] = Metabolic stability in human liver microsomes assessed as half life in presence of NADPH cofactor under shaking condition for 10 mins measured after 5 to 60 mins by LC-MS/MS analysis; assay type: ADME, Microsome; conditions: time 15-70 min
[13] = Metabolic stability in rat liver microsomes assessed as half life in presence of NADPH cofactor under shaking condition for 10 mins measured after 5 to 60 mins by LC-MS/MS analysis; assay type: ADME, Microsome; conditions: time 15-70 min
[14] = Metabolic stability in human liver microsomes assessed as microsomal intrinsic clearance in presence of NADPH cofactor under shaking condition for 10 mins measured after 5 to 60 mins by LC-MS/MS analysis; assay type: ADME, Microsome; conditions: time 15-70 min
[15] = Metabolic stability in rat liver microsomes assessed as microsomal intrinsic clearance in presence of NADPH cofactor under shaking condition for 10 mins measured after 5 to 60 mins by LC-MS/MS analysis; assay type: ADME, Microsome; conditions: time 15-70 min
[16] = Metabolic stability in human liver microsomes assessed as compound remaining in presence of NADPH cofactor under shaking condition for 10 mins measured after 60 mins by LC-MS/MS analysis; assay type: ADME, Microsome; conditions: time 70 min, read-out: Stability
[17] = Stability in rat plasma assessed as compound remaining at 120 mins by LC-MS/MS analysis; assay type: ADME, cell-free; conditions: read-out: Stability
[18] = Stability in human plasma assessed as half life at 120 mins by LC-MS/MS analysis; assay type: ADME, cell-free
[19] = Stability in rat plasma assessed as half life at 120 mins by LC-MS/MS analysis; assay type: ADME, cell-free
CYP2C9 = CYP2C9 (Homo sapiens, UniProt P11712); test: Inhibition of CYP2C9 in human liver microsome at 10 uM using diclofenac as substrate incubated for 10 mins in presence of NADPH cofactor by LC-MS/MS analysis; assay type: ADME; conditions: liver microsomes, probe diclofenac
CYP3A4 [20] = target: T1, CYP3A4 (Homo sapiens, UniProt P08684); test: Inhibition of CYP3A4 in human liver microsome at 10 uM using midazolam as substrate incubated for 10 mins in presence of NADPH cofactor by LC-MS/MS analysis; assay type: ADME; conditions: liver microsomes, probe midazolam
CYP2C19 = CYP2C19 (Homo sapiens, UniProt P33261); test: Inhibition of CYP2C19 in human liver microsome at 10 uM using S-mephenytoin as substrate incubated for 10 mins in presence of NADPH cofactor and fluconazole by LC-MS/MS analysis; assay type: ADME; conditions: liver microsomes, probe S-mephenytoin
CYP3A4 [21] = target: T1, CYP3A4; test: Inhibition of CYP3A4 in human liver microsome at 10 uM using midazolam as substrate incubated for 10 mins in presence of NADPH cofactor and fluconazole by LC-MS/MS analysis; assay type: ADME; conditions: liver microsomes, probe midazolam
[22] = Cmax in Sprague-Dawley rat at 10 mg/kg, iv measured up to 24 hrs by LC/MS/MS analysis; assay type: ADME, organism-based; set-up: dose 10 mg/kg, time < 24 hrs, route iv; conditions: in vivo
[23] = AUC (0 to infinity) in Sprague-Dawley rat at 10 mg/kg, iv measured at upto 24 hrs by LC/MS/MS analysis; assay type: ADME, organism-based; set-up: dose 10 mg/kg, time < 24 hrs, route iv; conditions: in vivo
[24] = C0 in Sprague-Dawley rat at 10 mg/kg, iv measured upto 24 hrs by LC/MS/MS analysis; assay type: ADME, organism-based; conditions: in vivo
[25] = AUC (0 to t) in Sprague-Dawley rat at 10 mg/kg, iv measured upto 24 hrs by LC/MS/MS analysis; assay type: ADME, organism-based; set-up: time < 24 hrs, dose 10 mg/kg, route iv; conditions: in vivo
[26] = Volume of distribution in Sprague-Dawley rat at 10 mg/kg, iv measured upto 24 hrs by LC/MS/MS analysis; assay type: ADME, organism-based; conditions: in vivo
Rattus norvegicus [27] = test: In vivo antifungal activity against azole resistant Candida albicans 904 infected in rat assessed as reduction in kidney fungal burden at 10 mg/kg, ip administered for 5 days, qd in presence of fluconazole; assay type: functional, organism-based; conditions: time 5.0 day
Rattus norvegicus [28] = test: In vivo antifungal activity against azole resistant Candida albicans 904 infected in rat assessed as colonization of fungal cells at 10 mg/kg, ip administered for 5 days, qd by PAS and HE staining based microscopy; assay type: functional, organism-based; conditions: time 5.0 day
Rattus norvegicus [29] = test: In vivo antifungal activity against azole resistant Candida albicans 904 infected in rat assessed as aggregation of inflammatory leukocytes at 10 mg/kg, ip administered for 5 days, qd by PAS and HE staining based microscopy; assay type: functional, organism-based; conditions: time 5.0 day
Candida albicans [30] = test: Induction of morphological changes in Candida albicans 904 assessed as hyphal formation by measuring EFG1 level incubated for 4 hrs in presence of fluconazole; assay type: functional, organism-based
Candida albicans [31] = test: Potentiation of fluconazole-induced antifungal activity against fluconazole-resistant Candida albicans 100 assessed as fluconazole MIC by checker board microdilution assay; assay type: functional
Candida albicans [32] = test: Potentiation of fluconazole-induced antifungal activity against fluconazole-resistant Candida albicans 311 assessed as fluconazole MIC by checker board microdilution assay; assay type: functional
Heat shock protein HSP90 = Heat shock protein HSP90 (Homo sapiens, UniProt P07900+P08238); test: Binding affinity to human Hsp90 expressed in Escherichia coli by SPR assay

T1 sequence (P08684 whole entry): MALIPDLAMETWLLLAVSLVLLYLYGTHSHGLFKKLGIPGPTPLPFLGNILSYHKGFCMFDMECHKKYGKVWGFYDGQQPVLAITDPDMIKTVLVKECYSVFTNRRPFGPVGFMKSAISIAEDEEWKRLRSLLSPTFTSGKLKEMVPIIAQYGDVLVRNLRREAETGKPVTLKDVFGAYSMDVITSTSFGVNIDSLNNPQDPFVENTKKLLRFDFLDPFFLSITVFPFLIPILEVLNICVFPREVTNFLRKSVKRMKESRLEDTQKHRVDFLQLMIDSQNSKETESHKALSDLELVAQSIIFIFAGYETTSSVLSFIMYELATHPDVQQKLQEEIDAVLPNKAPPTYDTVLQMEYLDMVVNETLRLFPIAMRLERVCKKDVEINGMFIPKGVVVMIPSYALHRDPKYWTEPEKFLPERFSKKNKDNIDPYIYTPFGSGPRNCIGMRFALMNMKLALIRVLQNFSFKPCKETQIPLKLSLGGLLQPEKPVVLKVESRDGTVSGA
CYP2C9, sequence (P11712 whole entry): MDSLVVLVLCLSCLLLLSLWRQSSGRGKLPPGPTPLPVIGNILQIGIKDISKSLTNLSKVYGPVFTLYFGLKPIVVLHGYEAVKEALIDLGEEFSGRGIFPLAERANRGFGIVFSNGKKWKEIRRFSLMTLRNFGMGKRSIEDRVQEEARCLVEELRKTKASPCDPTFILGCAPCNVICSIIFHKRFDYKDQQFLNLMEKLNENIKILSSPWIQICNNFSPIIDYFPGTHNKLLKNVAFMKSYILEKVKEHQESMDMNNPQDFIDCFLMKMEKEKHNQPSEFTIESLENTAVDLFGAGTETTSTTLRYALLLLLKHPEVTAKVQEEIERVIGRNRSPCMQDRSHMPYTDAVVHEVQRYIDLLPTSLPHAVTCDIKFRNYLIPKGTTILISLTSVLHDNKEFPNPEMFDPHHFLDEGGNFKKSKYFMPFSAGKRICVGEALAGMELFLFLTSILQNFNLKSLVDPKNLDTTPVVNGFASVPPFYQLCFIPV
CYP2C19, sequence (P33261 whole entry): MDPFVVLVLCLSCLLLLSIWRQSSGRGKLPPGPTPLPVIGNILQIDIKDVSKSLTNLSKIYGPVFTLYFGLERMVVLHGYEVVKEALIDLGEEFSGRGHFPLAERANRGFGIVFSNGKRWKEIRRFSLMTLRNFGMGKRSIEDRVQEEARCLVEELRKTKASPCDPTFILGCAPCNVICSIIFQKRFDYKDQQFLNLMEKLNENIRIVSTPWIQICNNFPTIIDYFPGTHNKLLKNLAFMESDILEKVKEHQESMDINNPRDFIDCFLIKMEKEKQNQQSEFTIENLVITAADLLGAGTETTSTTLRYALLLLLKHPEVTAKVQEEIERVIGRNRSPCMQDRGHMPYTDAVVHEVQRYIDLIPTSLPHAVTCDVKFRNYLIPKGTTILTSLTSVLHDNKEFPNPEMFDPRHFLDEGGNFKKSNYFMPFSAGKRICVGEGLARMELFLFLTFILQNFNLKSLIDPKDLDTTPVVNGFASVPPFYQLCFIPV

`CCNC(=O)c1noc(-c2cc(-c3ccc(C)cc3)c(O)cc2O)c1-c1ccc(CN2CCOCC2)cc1` gave an MIC80 (Candida albicans [1]) of 0.25 µg/mL, an MIC80 (Candida albicans [2]) of 0.25 µg/mL and an MIC80 (Candida albicans [3]) of over 64 µg/mL. The “fractional inhibitory concentration index (FICI)” value (Candida albicans [4]) was 0.035, the “fractional inhibitory concentration index (FICI)” value (Candida albicans [5]) was 0.035 and the IC50 (A549) was 13.1 µM. It also gave an IC50 (MCF7) of 34.1 µM, an IC50 at 24 h [6] of 7.15 µM and an IC50 at 24 h [7] of over 50 µM. For the same compound, the IC50 (RAW264.7) was 17.1 µM, the Activity (Candida albicans [8]) was “Active” and the Activity (Candida albicans [9]) was “Active”. The MFC (Candida albicans [10]) was over 64 µg/mL, the Activity (Candida albicans [11]) was “Active” and the half-life [12] was 32.1 min. The half-life [13] was 30.6 min, the CLint [14] was 43.2 µL/min/mg and the CLint [15] was 45.3 µL/min/mg. It also gave a remaining at 1.167 h [16] of 27.4%, a remaining at 2 h [17] of 99.4% and a half-life [18] of over 288 min. The half-life [19] was over 288 min, the inhibition at 10 min, 10 µM (CYP2C9) was 36.5% and the inhibition at 10 min, 10 µM (CYP3A4 [20]) was 36.7%. It also gave an inhibition at 10 min, 10 µM (CYP2C19) of 56.9%, an inhibition at 10 min, 10 µM (CYP3A4 [21]) of 39.3% and a Cmax [22] of 3440 ng/mL. The AUC(0-inf) [23] was 3030 ng·h/mL, the C0 at 24 h [24] was 4750 ng/mL and the AUC(0-t) at 24 h [25] was 3010 ng·h/mL. For the same compound, the Vd [26] was 11.2 L/kg, the Activity (Rattus norvegicus [27]) was “Active” and the Activity (Rattus norvegicus [28]) was “Active”. For the same compound, the Activity (Rattus norvegicus [29]) was “Active”, the Activity (Candida albicans [30]) was “Active” and the MIC80 (Candida albicans [31]) was 2 µg/mL. For the same compound, the MIC80 (Candida albicans [32]) was 2 µg/mL.

Compound `CNC(=O)c1noc(-c2cc(-c3ccc(C)cc3)c(O)cc2O)c1-c1ccc(CN2CCOCC2)cc1` has an MIC80 (Candida albicans [1]) of 0.25 µg/mL, an MIC80 (Candida albicans [2]) of 1 µg/mL and an MIC80 (Candida albicans [3]) of over 64 µg/mL. The “fractional inhibitory concentration index (FICI)” value (Candida albicans [4]) was 0.047, the “fractional inhibitory concentration index (FICI)” value (Candida albicans [5]) was 0.062 and the IC50 (A549) was 7.12 µM. It also gave an IC50 (MCF7) of 21.5 µM, an IC50 at 24 h [6] of 10.6 µM and an IC50 at 24 h [7] of 12.2 µM. The IC50 (RAW264.7) was 11.3 µM, the Activity (Candida albicans [8]) was “Active” and the Activity (Candida albicans [9]) was “Active”. The MFC (Candida albicans [10]) was over 64 µg/mL, the Kd (Heat shock protein HSP90) was over 25 µM and the half-life [12] was 24.8 min. For the same compound, the CLint [14] was 55.9 µL/min/mg, the remaining at 1.167 h [16] was 19.1% and the half-life [18] was over 288 min. The inhibition at 10 min, 10 µM (CYP2C9) was 25.2%, the inhibition at 10 min, 10 µM (CYP3A4 [20]) was 43.2% and the Activity (Candida albicans [30]) was “Active”. It also gave an MIC80 (Candida albicans [31]) of 2 µg/mL and an MIC80 (Candida albicans [32]) of 2 µg/mL.
